No end group written: not given here.
Test system: P. aeruginosa M13513
Assay: Eradication of pre-formed biofilm and cell viability (crystal violet, MTT, CLSM)
Type: cell-based, Pseudomonas aeruginosa
Conditions: 1xMIC to 8xMIC
Description: Biofilms of P. aeruginosa M13513 were grown in 96-well flat-bottom polystyrene plates using CAMHB for 24 h. Once the biofilms were established, the supernatant was removed, and 100 µL of CAMHB containing two-fold serial dilutions of antimicrobials were added to each well. The plates were then incubated for an additional 24 h at 37 °C.
For each experiment, two sets of plates were prepared: one for biofilm quantification using the crystal violet (CV) staining method described earlier, and another to assess bacterial cell viability within the biofilm using the MTT assay (3-(4,5-dimethylthiazol-2-yl)-2,5-diphenyltetrazolium bromide). To perform the MTT assay, the medium was carefully removed, and biofilms were washed three times with 200 µL of saline solution. Subsequently, 100 µL of a 0.05% (w/v) MTT solution was added to each well, and the plates were incubated in the dark at 37 °C for 3 h.
Following incubation, the supernatant was discarded, and the resulting formazan crystals were dissolved in 100 µL of DMSO. The samples were then homogenized by orbital shaking for 10 min. Finally, absorbance was measured at 570 nm using a microplate reader. […]
The proportion of live and dead bacteria was determined by analyzing three representative images from each biofilm sample using the ImageJ software 1.52v with the FIJI plugin.

GLLRKWGKKWKEFLRRVWK-NH2 [Peptide P6.2]
bacterial viability inside the pre-formed biofilm (MTT assay, confirmed by SYTO9/PI confocal microscopy): significantly decreased the bacterial viability inside the biofilm | pre-formed biofilm mass (crystal violet, 24 h treatment): diminished the biofilm mass

— PMC11940343, “In Vitro and In Vivo Evaluation of the De Novo Designed Antimicrobial Peptide P6.2 Against a KPC-Producing P. aeruginosa Clinical Isolate” (Biomolecules, 2025)
